Measured values as given in US8114840B2, “Medicament containing activated antithrombin III” (Hamburger Stiftung zur Forderung Von Wissenschaft und Kultur, priority 2000, dated 2012).

What was measured:
thrombocytes [1] = assay: Adhesion of thrombocytes to adhesion proteins (microtitre plate, hexosaminidase); assay type: cell-based; conditions: for inhibition of IDAAT-mediated adhesion of thrombocytes to collagen / inhibition of IDAAT-mediated adhesion of thrombocytes to thrombospondin (immobilized TSP-1): EDTA 5 mM; for inhibition of IDAAT-mediated adhesion of thrombocytes to thrombospondin (immobilized TSP-1): integrins 5 μg/ml, Wortmannin 20 nM, LY294002 50 μm, clone 37 with Fc receptor blocked by IV.3; for inhibition of IDAAT-mediated adhesion: Heparan sulfate 0-10 μg/ml, sulfatide 0-20 μg/ml
Experimental: The adhesion of thrombocytes was carried out according to Santoro et al, 1994. […] Non-adhering thrombocytes were thoroughly washed out. The number of adhering platelets was determined by lysing the platelets with Triton X-100 and determining the lysosomal enzyme hexosaminidase. In order to calibrate the adhesion assay a calibration series containing a known and increasing number of platelets was added to the microtitre plate and the absorbance of the reacted substrate p-nitrophenyl-N-acetyl-β-glucosaminide was determined in relation to the number of platelets.

TNF α = TNF α secretion of monocytes activated with S. aureus and interferon γ (ELISA); assay type: cell-based; conditions: substance alone
Experimental: FIG. 9: The IL-10 secretion of monocytes activated with S. aureus and interferon γ is increased by IDAAT. Thus IDAAT promotes the secretion of an interleukin which protects against LPS-induced lethality in animal experiments. The method used was carried out analogously to FIG. 8. IL-10 was determined by means of an ELISA. FIG. 10 (sequence in the figure title: SEQ ID NO:2): The TNF α secretion of monocytes activated with S. aureus and interferon γ is inhibited by the TSP-1 peptide […] NO: 2) (10a). […] TNF α was determined by means of an ELISA. The method used was carried out analogously to FIG. 8. FIG. 11: IDAAT inhibits the Arthus reaction in the ear of Balb-C mice • a) Mouse treated twice intraperitoneally at time 0 and 0+3 hours with 50 μg IDAAT each time. Arthus reaction in the left ear • b) Mouse treated intraperitoneally twice with control buffer. Arthus reaction in the left ear • c) BSA-FITC incorporated into the ears as a measure for the Arthus reaction in mice treated with IDAAT or control buffer. Arthus reaction in the left ear. FIG. 12: • a) dot plot of the thrombocyte-bacterial association • A: thrombocytes labelled with PE-conjugated anti-GPIX antibody (Beb 1) • B: bacteria (S. aureus) labelled with Syto 13 • C: bacteria-thrombocyte associates emitting both fluorescences • b) S. aureus (Cowan 1)-thrombocyte associates

monocytes = assay: TSP-1 binding to monocytes, flow cytometry with anti-TSP antibody clone P10-PE; assay type: cell-based, human; conditions: 10 μg/ml purified TSP-1, without IDAAT; ~1% without additions
Experimental: Whereas without the addition of purified TSP-1 and without the addition of IDAAT only ˜1% of eluted human monocytes could be detected in a flow cytometer by an antibody (clone P10) which recognizes TSP-1 on the cell surface, the number increases to ca. 5% by adding 10 μg/ml purified TSP-1.
(§1) Apoptotic PMNL were incubated for 30 minutes with Hepes-Tyrode buffer pH 7.4, washed, labelled with the anti-TSP antibody P10-PE and the fluorescence of 3000 cells was measured in a flow cytometer • b) PMNL were made apoptotic by incubation in a cell culture medium for 24 hours in an incubator according to Savill et al., 1992. Apoptotic PMNL were incubated for 30 minutes with TSP-1 (5 μg/ml) and IDAAT (10 μg/ml) in Hepes-Tyrode buffer pH 7.4, washed, labelled with the TSP antibody P10-PE and the fluorescence of 3000 cells was measured in a flow cytometer. • c) Procedure as in a and b: IDAAT was used at increasing concentrations, IDAAT mediates the binding of thrombospondin (10 μg/ml) that was either present endogenously or added exogenously. FIG. 3: IDAAT cross-links apoptotic PMNL with monocytes by means of TSP Eluted PMNL and eluted monocytes were incubated together for 30 minutes at room temperature with TSP and IDAAT at various concentrations and the cells were fixed. […] PE and FITC positive associates were measured using a flow cytometer. […]

[2] = tested on: S. aureus binding to thrombocytes; assay: S. aureus-thrombocyte associate formation, flow cytometry; assay type: cell-based
Experimental: Thrombocytes were labelled with a thrombocyte-specific phycoerythrin-conjugated anti-GPIX antibody (clone Beb 1). Bacteria (various S. aureus strains) were adjusted with Tris-buffered saline solution (TBS) to a number of 250,000 microorganisms/μl and labelled with the RNA-dye Syto 13 [MoBiTec, Göttingen] at a concentration of 2 μM. Labelled bacteria and labelled thrombocytes were co-incubated for 10 minutes at a ratio of 10:1.
The cell population were analysed in a flow cytometer. Cells that were positive for both fluorochromes were classified as associates (see FIG. 12a). Thrombin stimulation and release of TSP from the α-granula of the platelets increased the percentage of platelets carrying bacteria by 2.5-fold relative to the total number of thrombocytes.

[3] = tested on: monocytes through a HMEC-1 monolayer; assay: Transmigration of monocytes through endothelium (Transwell); assay type: cell-based, human; conditions: purified TSP 25 μg/ml
Experimental: Transmigration experiments were carried out as described by Kielbassa et al., 1998. The addition of IDAAT to the culture medium of the monocytes during a transmigration experiment stimulates dose-dependently the transmigration of monocytes through the endothelium by 2-3-fold (see FIG. 4).
as §1, with “exogenously.” for “exogenously. FIG. 3: IDAAT cross-links apoptotic PMNL with monocytes by means of TSP Eluted PMNL and eluted monocytes were incubated together for 30 minutes at room temperature with TSP and IDAAT at various concentrations and the cells were fixed.”
After a 4 hour transmigration period, the inserts were carefully removed, the cell culture plate was placed for 30 min on ice in order to detach the adhered monocytes and the number of transmigrated monocytes was counted.

thrombocytes [4] = assay: Thrombocyte aggregation according to Born; assay type: cell-based; conditions: purified thrombospondin 25 μg/ml alone
Experimental: Gel-filtered platelets (200,000/μl) in Hepes-Tyrode buffer pH 7.4 containing fibrinogen (100 μg/ml) were examined in an aggregometer according to Born.
The method used was elucidated in detail in the description of the example. FIG. 21: The addition of monocytes (100/μl) to thrombocytes (300,000/μl) increases the adhesion of thrombocytes to TSP-1, whereas the addition of erythrocytes (20,000/μl) has an inhibitory effect. The method used was elucidated in detail in the description of the example. FIG. 22: The IDAAT-induced thrombocyte adhesion was inhibited by the inhibitors of PI-3 kinase Wortmannin (20 nM) and LY294002 (50 μm). For this purpose Wortmannin and LY294002 were preincubated for 10 minutes before adding IDAAT. FIG. 23: IDAAT mediates thrombospondin-mediated thrombocyte aggregation Thrombocyte aggregation was carded out according to Born 1962. TSP-1 (25 μg/ml) was pipetted into an aggregation-cuvette containing gel-filtered platelets (200,000/μl) in Hepes-Tyrode buffer pH 7.4 containing 100 μg/ml fibrinogen. […] Addition of IDAAT led to a weak aggregation reaction Simultaneous addition of IDAAT and soluble TSP-1 led to a pronounced aggregation. FIG. 24: IDAAT mediates the microparticle formation of thrombocytes

O=C(O)CN(CCN(CC(=O)O)CC(=O)O)CC(=O)O [EDTA]
inhibition of IDAAT-mediated adhesion of thrombocytes to collagen (thrombocytes [1]): completely inhibits | inhibition of IDAAT-mediated adhesion of thrombocytes to thrombospondin (immobilized TSP-1) (thrombocytes [1]): completely inhibits

Heparan sulfate
inhibition of IDAAT-mediated adhesion (thrombocytes [1]): do not inhibit

RFYVVMWK (listed as Homo sapiens) [TSP-1 peptide RFYVVMWK]
release/secretion of TNF α (TNF α): inhibited

TSP-1: thrombospondin-1, trimeric modular glycoprotein purified from human thrombocytes
inhibition of IDAAT-mediated adhesion of thrombocytes to collagen (thrombocytes [1]): inhibits | inhibition of IDAAT-mediated adhesion of thrombocytes to thrombospondin (immobilized TSP-1) (thrombocytes [1]): inhibits | adhesion of thrombocytes to collagen (thrombocytes [1]; FIG. 20, dose dependence): dose-dependently inhibits | TSP-1 positive monocytes (monocytes): ca. 5% | S. aureus (Cowan-1)-thrombocyte associates ([2]; TSP-1 added in addition to IDAAT): further increase in the number of associates | transmigration of monocytes [3]: stimulates the transmigration | thrombocyte aggregation (thrombocytes [4]): no aggregation

Thrombin [reference compound]
increase of percentage of platelets carrying bacteria ([2]; thrombin stimulation, release of TSP from α-granula): 2.5 fold

sulfatide
inhibition of IDAAT-mediated adhesion (thrombocytes [1]): do not inhibit
